Assay results: publication PMC10266789 (The Journal of Clinical Investigation, 2023)
Read-outs that look alike come from different tables or passages of the source.

What was measured:
[1] = test system: acetylated α-tubulin in HepG2 cells; assay: Western blot of acetylated α-tubulin in HepG2 cells; format: cell-based, human; conditions: 24 hours, plus 1 µM trichostatin A
Description: Supplemental Figure 1. […] (A) HepG2 cells were treated with FLS- […]
determined by western blot. Total a-tubulin was monitored as a control. (B) MDA-MB-231 cells or (C) MRC-5 fibroblasts were treated with drug for 72h and c-Myc was monitored by western blot with b-actin as a control. Western blots are representative of three independent experiments.
(1 picture or pasted object on this page, not shown here)

[2] = Host cell cytotoxicity, Calu3; format: cell-based; conditions: Calu3 cells; human Calu3; SARS-CoV-2 assay
[3] = Host cell cytotoxicity, Akata; format: cell-based; conditions: Akata cells (Burkitt lymphoma cell line); human Akata; Epstein-Barr assay
Description: The Akata Burkitt lymphoma cell line is permissive for EBV lytic reactivation through activation of the B cell receptor ([52]). As expected, 24 hours after receptor engagement with anti-IgG, 30% of Akata cells induced surface expression of the late EBV gene gp350, which serves as a proxy for cells that are replicating viral DNA and forming new virions (Figure 3A).

[4] = test system: HCMV TB40/E-mCherry-UL99eGFP; assay: HCMV virus yield at 72 hpi by TCID50 (3 IU/cell); format: cell-based, human cytomegalovirus; conditions: Figure 8C
[5] = test system: HCMV TB40/E-mCherry-UL99eGFP; assay: Infectivity of HCMV progeny particles (DNase I-resistant viral DNA vs TCID50); format: cell-based, human cytomegalovirus
[6] = Mouse pharmacokinetics, plasma; format: in vivo; conditions: single 50 mg/kg p.o., female BALB/c mice
Description: The pharmacokinetics study used fed female BALB/c mice (22 g, n = 3 per time point). Blood samples (~30 μL via saphenous vein puncture) were taken at 0.25, 0.5, 1, 2, 4, 8, and 24 hours. […] The lower limit of quantification was 10 ng/mL. An aliquot of 10 μL plasma sample was mixed with 10 μL terfenadine solvent plus 2 μL methanol. An additional 200 μL of terfenadine solvent was added, and the resulting mixture was vortexed for 1 minute and centrifuged at 1,500g for 15 minutes. The supernatant was diluted 10× with methanol/water (1:1 vol/vol with 0.1% formic acid), and 2 μL aliquots were analyzed using a QTRAP 4000 LC-MS/MS System (Sciex) with a C18 column (Kinetex). Pharmacokinetic parameters were determined with the noncompartmental analysis tool in WinNonlin (Certara).
Plasma samples from groups
Mean +/- SD is presented.

HCMV TB40/E [7] = assay: Mouse gelfoam-fibroblast model of HCMV infection; format: in vivo, CIEA NOG mice; conditions: day 11; TCID50; FLS-359 50 mg/kg p.o. b.i.d.; valganciclovir 50 mg/kg p.o. daily; P < 0.03
HCMV TB40/E [8] = assay: Human lung-only mouse model of HCMV infection; format: in vivo, lung-only mice (NSG); conditions: day 17; TCID50; FLS-359 50 mg/kg p.o. b.i.d.; ganciclovir 100 mg/kg i.p. daily; P < 0.04
[9] = test system: Influenza A (strain A/California/07/2009)
[10] = test system: Hepatitis B virus (genotype D, subtype ayw); conditions: Hepatitis B/human PHH
[11] = Host cell cytotoxicity, PHH; conditions: human
[12] = test system: HCMV TB40/E-mCherry-UL99eGFP; assay: HCMV delayed treatment protocol, infected cell area in MRC-5; conditions: for IC50: Human betaherpesvirus 5, MRC5, 120 h, 5 days of treatment

## Cc1cn(-c2ccc3c(c2)CN(c2ncc(Cc4ccc(-n5cccn5)cc4)s2)CC3)c(C)n1 [FLS-359, 7-(2,4-dimethyl-1H-imidazol-1-yl)-2-(5-{[4-(1H-pyrazol-1-yl)phenyl]methyl}-1,3-thiazol-2-yl)-1,2,3,4-tetrahydroisoquinoline]
[1]
  increase of acetylated α-tubulin level: about 3 factor
[2]
  CC50: 15800 nM
[3]
  CC50: > 100000 nM
[4]; 72 hpi, TCID50
  production of infectious virus: reduced the production of infectious virus to below the limit of quantification
[4]; 72 hours
  reduction in infectious virus: more than 1,000 fold
[5]; 1.0 μM, 2 hpi to 96 hpi, 1 IU/cell
  reduction of particle/infectious unit ratio (infectivity): 14.5 factor
[5]; 2.5 or 5.0 μM, 2 hpi to 96 hpi
  reduced infectivity: more than 1,690 fold
[5]; Figure 8E
  reduction in extracellular virus particles: approximately 70 fold
[5]; Figure 8E, discussion
  reduction of viral infectivity: more than 1,600 fold
[6]; female, BALB/c, mouse, in vivo, po, 50 mg/kg, read-out: plasma half-life (T1/2) (converted)
  half-life: 5.8 ± 1.4 h
[6]; female, BALB/c, mouse, plasma, po, 50 mg/kg
  Cmax: 89.3 ± 11 µM
[6]; mouse, plasma, po
  AUC(0-inf): 713 µM·h
  Tmax: 2 h
[6]; plasma, 50 mg/kg
  Cmax: 89 µM
HCMV TB40/E [7]
  virus production in gelfoam implants: significantly reduced virus production
HCMV TB40/E [8]
  production of infectious HCMV progeny in human lung implants: significantly reduced the production of infectious HCMV progeny
[9]; Influenza A/human dNHBE
  SI CC50/IC50: >83.3
[9]; human dNHBE
  IC90, Influenza A (column headed IC50, footnote C: IC90): 1.2^C μM
[10]
  SI CC50/IC50: >2.1
[11]
  CC50: > 10000 nM
[12]; read-out: IC50, infected cell area, drug added at 0 hpi, 0.1 IU/cell
  IC50: 900 nM
[12]; read-out: IC50, infected cell area, drug added at 24 hpi
  IC50: 600 nM
[12]; read-out: IC50, infected cell area, drug added at 48 hpi
  IC50: 800 nM
[12]; read-out: IC50, infected cell area, drug added at 72 hpi
  IC50: 900 nM
[12]; read-out: IC50, infected cell area, drug added at 96 hpi
  IC50: 900 nM
[12]; drug added at 0 hpi
  Maximum Fold-Reduction in infected cell area: 11.6
[12]; drug added at 24 hpi
  Maximum Fold-Reduction in infected cell area: 33.4
[12]; drug added at 48 hpi
  Maximum Fold-Reduction in infected cell area: 21.2
[12]; drug added at 72 hpi
  Maximum Fold-Reduction in infected cell area: 17.6
[12]; drug added at 96 hpi
  Maximum Fold-Reduction in infected cell area: 21.8
